Experimental data from patent US20250122193A1, “NOVEL PYRIDOCARBAZOLIUM COMPOUNDS AND MEDICAL USES THEREOF” (MyCural Therapeutics, priority 2021, published 2025).

Key:
[1] = oxidative metabolism in human liver microsomes
[2] = in vivo; settings: mouse, plasma, ip, 6.25 mg/kg
[3] = system: MCF-7 breast carcinoma cells; test: RNA-seq gene set enrichment analysis; settings: 5 μM, 24 hrs
[4] = system: normal human peripheral blood lymphocytes; test: apoptosis assay (Cell Death Detection ELISA), peripheral blood lymphocytes; format: cell-based; settings: 5 μM, 24 and 48 hours
Method: (§1) FIG. 4: MYCMI-7 induces apoptosis in malignant cells and growth arrest in normal cells. A) Cell cycle distribution analysis by flow cytometry of MYC-regulated P493-6 cells and normal rat embryo fibroblasts (REFs). Left panel, P493-6 synchronized in G0 by 24 hours treatment of […] doxycycline. Doxycycline was removed and the cells were harvested 48 hours after the addition of fresh medium containing DMSO or 5 μM MYCMI-7. Right panel, flow cytometry analysis of normal REFs treated with DMSO or 5 μM MYCMI-7. B) Apoptosis assay using the Cell Death Detection ELISA^plus kit. Left panel, immortalized Rat1 fibroblasts with different MYC status after 24 hours of 5 μM MYCMI-7 treatment, middle panel and right panels, normal REFs and normal peripheral blood lymphocytes, respectively, after 24 and 48 hours of 5 μM MYCMI-7 treatment. C) Measurement of viability and apoptosis by Apo-Tox Glo Triplex assay in A375 melanoma cells after 3 days of treatment with MYCMI-7 with the indicated concentrations. […] E) NHDFs treated with 3 μM MYCMI-7 for 72 hrs. Viability was measured by trypan blue exclusion assay. F) Cell growth measured with Cyt62 assay of primary normal human epidermal melanocytes (NHEM) treated for 72 hours with MYCMI-7, G) Viability measured by trypan blue exclusion assay of NHEM after treatment for 72 hours with MYCMI-7.

[5] = system: cyclin E; test: cyclin E protein expression; format: cell-based
Method: For western blot equal amounts of proteins ([…]) were separated on a 4-12% SDS-PAGE gel. Proteins were transferred to Immobilion-P membrane (Millipore) and detected by immunostaining and chemoluminescence (Immobilion western HRP substrate; Millipore). For immunoprecipitations 500-1000 μg of protein was used. […] Briefly, cells were crosslinked with 1% formaldehyde on ice for 6 minutes. Nuclear chromatin was sonicated on ice to fragments from 0.3 kb to 0.5 kb. Nuclear chromatin equivalent to 2.5×10^7 cells was immunoprecipitated with 2 μg antibody.

[6] = system: primary patient derived glioblastoma cells; test: primary glioblastoma cultures, resazurin assay; settings: 42 patients, 2D cultures, 72 hours
[7] = molecular target: T1, MYC protein turnover (Homo sapiens, UniProt P01106); test: cycloheximide (CHX) chase of MYC; format: cell-based; settings: wt HCT116 cells, 5 μM
T1 construct: Endogenous MYC was immunoprecipitated and detected by western blot analysis; endogenous in cells; host or cells: MCF7, HeLa, P493-6, HCT116 (WT, FBW7-/-, p53-/-)
T1 sequence (P01106 16-454): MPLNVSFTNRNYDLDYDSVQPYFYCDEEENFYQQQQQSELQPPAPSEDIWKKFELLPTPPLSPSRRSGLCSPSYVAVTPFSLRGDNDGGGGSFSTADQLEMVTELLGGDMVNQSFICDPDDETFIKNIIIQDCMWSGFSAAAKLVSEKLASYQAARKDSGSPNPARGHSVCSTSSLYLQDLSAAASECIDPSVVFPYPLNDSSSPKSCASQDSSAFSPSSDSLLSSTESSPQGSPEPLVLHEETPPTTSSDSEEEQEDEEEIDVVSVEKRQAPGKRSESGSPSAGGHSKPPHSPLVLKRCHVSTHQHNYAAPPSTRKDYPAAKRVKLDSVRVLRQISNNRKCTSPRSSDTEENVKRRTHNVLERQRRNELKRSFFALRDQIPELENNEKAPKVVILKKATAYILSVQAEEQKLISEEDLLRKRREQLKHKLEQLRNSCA
Method: FIG. 2: MYCMI-7 downregulates MYC and MYCN protein expresión. A) Steady state levels of MYC protein in MCF7 cells after 17 hours exposure to indicated concentrations MYCMI-7 or ellipticine B) MYC mRNA expression in MCF7 cells after treatment with MYCMI-7 for various time points. C) Steady state levels of MYC protein in different HCT116 cell lines (WT, FBW7−/− or p53−/−) after 17 hours exposure to 5 μM MYCMI-7. Endogenous MYC was immunoprecipitated and detected by western blot analysis. D) Cycloheximide (CHX) chase in HCT116 cells. Cells were subjected to 5 μM MYCMI-7 30 min prior cycloheximide addition. Cells were harvested after the indicated time points, MYC was immunoprecipitated using N262 antibody and the MYC levels analyzed using western blot (C33 antibody). E) CHX chase after MYCMI-7 treatment performed as in (D) using Fbxw7-deficient HCT116 cells. F) Stable expression of wt, T58A or S62A MYC in HO15.19 MYC−/− cells. The cells were treated with 5 μM MYCMI-7 overnight, and MYC expression was analyzed by western blot. G) Cartoon showing a linear structural representation of wt MYC and indicated mutants. […]
For western blot equal amounts of proteins ([…]) were separated on a 4-12% SDS-PAGE gel. Proteins were transferred to Immobilion-P membrane (Millipore) and detected by immunostaining and chemoluminescence (Immobilion western HRP substrate; Millipore). […]

[8] = system: A375 melanoma cells; test: Apo-Tox Glo Triplex assay, A375; format: cell-based; settings: 3 days of treatment
Method: as §1

[9] = system: Rat1 fibroblasts TGR1 (wt MYC) and HOMyc3 (reconstituted MYC); test: WST-1 growth/viability assay, MYC-expressing Rat1 fibroblasts; format: cell-based, rat; settings: Rattus norvegicus, TGR1, 48 h, read-out: GI50 (average growth inhibition of 50%)

SMILES: CCN(CC)CC[n+]1ccc2c(C)c3[nH]c4ccccc4c3c(C)c2c1 [MYCMI-7, 2-(5,11-Dimethyl-6H-25-pyrido[4,3-b]carbazol-2-yl)-N,N-diethylethanamine bromide]
- stability against oxidative metabolism [1]: stable
- half-life [2]: 1.5 h
- GSEA of differentially expressed genes: MYC and E2F target genes [3]: downregulation
- apoptosis [4]: did not induce apoptosis
- protein expression of cyclin E [5]: unaffected
- GI50 [6]: submicromolar range
- turnover rate of MYC (CHX chase) [7]: increased
- GI50 [8]: nanomolar range
- apoptosis (caspase activation) [8]: induced apoptosis in a dose-dependent manner
- GI50 [9]: ~2000 nM
